Several values for one entry are separate records, joined by “and”; a condition that tells them apart may be missing. Equal values may be shown once. Read-outs that look alike come from different tables or passages of the source.
Columns and labels:
[1] = system: CD1 pups with unilateral carotid ligation (ischemic seizures); settings: for latency to the 1st-detected seizure: drug given IP immediately after ligation
[2] = system: CD1 mice with permanent unilateral carotid-ligation (acute ischemic seizures); assay: Video-EEG seizure burden after carotid ligation at P7, P10, P12 with PB and adjunct BTN (Example 2); type: in vivo, mouse; settings: for reduction of seizure burden: PB 25 mg/kg IP 1 h after ligation; for effect of adjunct BTN on PB-efficacy: BTN 0.1-0.2 mg/kg IP 2 h post-ligation
Description: Experimental design. […] All surgery was performed under isoflurane general anesthesia, and all efforts were made to minimize suffering. All litters of CD1 mice were purchased from Charles River Laboratories Inc. (Wilmington, Mass.). Newly born litters of pups arrived at postnatal 3 or 4 days old, and were allowed to acclimate. […] Ninety two pups from 12 litters were included in the video-EEG study (n=48 male and n=44 female). The susceptibility to ischemic seizures was tested at 3 developmental ages i.e., 7, 10 and 12 days old CD1 pups (n=80 ligated and 12 shams). […] The pups underwent permanent ligation and sham surgeries followed by 3 h of EEG recording each, as described in methods (total pups=92 of which ligates P7=29, P10=24 and P12=27 and sham P7=5, P10=4 and P12=3; see Table 2). From the ligated group of pups (total n=80), the ligated-control pups also underwent 3 h EEG recordings to evaluate natural progression of ischemic seizure burden over the duration of treatment efficacy evaluated in this study (total pups n/n=26/80, P7=8, P10=9 and P12=9). […] Since the severity of stroke-injury and seizure varies between pups, the baseline EEG of each pup served as an important internal control. Additionally, since the exact time-point of onset for ischemia in human neonates is not known and may not be a single massive event, the 1 h of non-treatment also served as an important delay expected in the treatment of neonatal seizures that are detected hours after stroke in humans.
Surgical procedure for ischemic insult and electrode implantation. Animals were anesthetized with 2% isoflurane. The right common carotid artery was permanently double-ligated with 6-0 surgisilk and the outer skin closed with 6-0 monofilament nylon to induce ischemia (i.e.; ischemia was induced by unilateral common carotid ligation alone. Unlike other rat models commonly used for neonatal stroke, no global hypoxia is needed to induce acute ischemic seizures). Since the ligated carotid is not transected in our model, the intact pulsating carotid artery with silk ligatures can lead to reperfusion over time in this model. The constrictive efficacy (which drops cerebral perfusion to 40% or less) of the silk ligatures is known to diminish, due to the loss of their tensile strength in-vivo against the pulsating artery as a function of time. […] The animals were then implanted with three sub-dermal EEG electrodes (1 recording, 1 reference, and 1 ground) on the skull overlying the parietal cortex using bregma as a reference. Scalp wire electrodes made for sub-dermal use in humans (IVES EEG; Model # SWE-L25-MA, USA) were implanted, sub-dermally fixed with adhesive, in the pups. […] In this study, the recording and reference electrodes were implanted less than 1 cm apart. Pups were then allowed to recover from anesthesia in a 36° C. isothermal chamber for 3 h recording of video-EEG (FIG. 12). At the end of the recording session, the pups were returned to the dams after removal of the sub-dermal electrodes and application of local anesthetic medication.
In vivo synchronous video-EEG recording. […] Data acquisition was done using PAL-8400 software with synchronous video capture (Pinnacle Technology Inc.). […] The files were stored in .EDF format and scored in real time using the review and scoring software package.

[3] = cited from earlier work
HIE seizures = settings: neonates, cited from earlier work
ischemic seizures = assay: CLP290 in the neonatal ischemic seizure model, 3 h EEG (Example 3); settings: 20 mg/kg, n=4, vs vehicle (HPCD)
Description: Arrow heads indicate time of 1 hourly drug injections from start of the 3 h recording.

[4] = adult mouse, 0.5 mg/kg IP, cited from earlier work
KCC2 = assay: Western blot of KCC2 expression, ipsilateral normalized to contralateral hemisphere, post-ligation; type: in vivo, mouse
Description: Western blot at 3 h and 24 h post-ligation. All animals were anesthetized with chloral hydrate (90 mg/ml; IP) before being transcardially perfused. The whole brains of P7 and P10 pups were harvested at either 3 h or 24 h post-ligation, and were frozen as ipsilateral and contralateral hemisphere. The brains were stored in −80° C. until further use. Homogenized whole brain lysates were suspended in cell lysis buffer with 10% protease/phosphatase inhibitor cocktail. Total protein concentrations were quantified through Bradford Assay (Bio-Rad) at 570 nm wavelength, and the samples were diluted for 50 ug of protein at 20 ul of loading volume for gel electrophoresis.
Samples were run on 4-20% gradient 1.5 mm 15 wells SDS gels (Invitrogen) for 100-120 min with 130V, and were transferred onto nitrocellulose membranes for overnight wet-transfer for minimum of 18 hours at 30V. After the transfer, the nitrocellulose membranes underwent 1 h blocking step in odyssey buffer, before overnight incubation in primary antibodies: rabbit α-KCC2 (1:1000, Millipore; Cat. No. 07-432); rabbit α-NKCC1 (1:500, Millipore, Cat. No. AB3560P); mouse α-actin (1:10000, LI-COR Biosciences, Cat. No. 926-42214). On the next day, nitrocellulose membranes were washed with TBS containing tween detergent, and then were incubated in […] secondaries for 1 h (1:5000 for both goat α-mouse 680LT and goat α-rabbit 800CW, LI-COR Biosciences). Chemiluminescent protein bands were analyzed using the Odyssey infrared imaging system 2.1 (LI-COR Biosciences). The optical density of each protein sample was normalized to the actin bands run on each lane for internal control. The expression levels of the proteins of interest in ipsilateral hemispheres were normalized to the same in contralateral hemispheres for each pup. The human brain was recently shown to express two splice variants of NKCC1 (a and b) and the NKCC1 probe used in this study and all previous studies referenced here can only detect the NKCC1a isoform because the targeted epitope site of this probe overlaps with exon 21 that is spliced in the dominant isoform NKCC1b. A reliable pan-NKCC1 probe is not currently available.
A smaller sample of naïve age-matched controls (n=8, 4 each at P8 and P11, equal sexes) was run with the 24 h WB data (brains harvested at P8 and P11, i.e.; 24 h after P7 and P10 ligations). […] This pilot established that contralateral hemispheres were ideal controls for normalization of KCC2 and NKCC1 expression in ipsilateral injured hemispheres for this study similar to previously reported conclusions in another ischemia model.

Compound: CCC1(c2ccccc2)C(=O)NC(=O)NC1=O [PB, phenobarbital]
- percent PB seizure suppression over baseline ([1]; P10 pups, ANA12 2.5 mg/kg IP after ligation (or none), PB 25 mg/kg IP at 1 h, 2nd h vs baseline EEG): 68%
- reduction of seizure burden ([2]; P10): 61%
- reduction of seizure burden ([2]; P12): 64%
- half-life ([3]; immature rodents): ~900 min

Compound: CCCCNc1cc(C(=O)O)cc(S(N)(=O)=O)c1Oc1ccccc1 [BTN, bumetanide]
- adjunct anti-seizure effect of BTN given 1 h after PB ([1]; P10, ANA12+PB treated pups, BTN 0.1-0.2 mg/kg IP, 3rd h): significantly blunted PB-efficacy by increasing the seizure burden
- effect of adjunct BTN on PB-efficacy ([2]; P7): did not improve PB-efficacy
- anti-seizure effect on total time spent seizing on EEG ([2]; P7, PB 25 mg/kg at 1 h, BTN 0.1-0.2 mg/kg at 2 h post-ligation): failed to have any significant anti-seizure effect
- effect of adjunct BTN on PB-efficacy ([2]; P10): PB-induced seizure suppression was lost
- effect of adjunct BTN on PB-efficacy ([2]; P12): failed to act as an effective adjuvant
- electrographic seizure scores after follow-on BTN ([2]; any age (P7, P10, P12)): did not add any significant therapeutic benefit
- half-life ([3]; rodents): < 30 min and ~30 min
- efficacy for HIE seizures (HIE seizures; clinical trial terminated): inefficacy
- safety finding (HIE seizures): ototoxicity

Compound: O=C1N=C(N2CCCCN2)S/C1=C\c1ccc(F)cc1OC(=O)N1CCCC1 [CLP290]
- anti-seizure activity alone (ischemic seizures): can act independently as an anti-seizure agent

Compound: O=C(Nc1ccccc1C(=O)NC1CCCCNC1=O)c1cc2ccccc2s1 (stereo not drawn) [ANA12, N-[2-[[(Hexahydro-2-oxo-1H-azepin-3-yl)amino]carbonyl]phenyl] benzo[b]thiophene-2-carboxamide]
- brain concentration ([4]; 0.5 h): 400 nM
- brain concentration ([4]; 6 h): 10 nM
- latency to the 1st-detected seizure ([1]; P7): 202.3 ± 38.8 s
- post-treatment mortality rate vs vehicle (Fisher's exact test) ([1]; P7 p=0.58, P10 p=1.00): did not show a statistical significance
- anti-seizure effect on EEG seizure burden ([1]; P7 pups): did not have any anti-seizure effect
- age- and sex-dependent seizure susceptibility to ischemic seizures ([1]; P7 vs P10, baseline seizure burden): not altered
- latency to the 1st-detected seizure ([1]; P10): 245.8 ± 39.8 s
- anti-seizure effect on EEG seizure burden ([1]; P10 pups): did not have any anti-seizure effect
- effect on post-ischemic degradation of KCC2 expression (KCC2; 3 h post-ischemia): underwent degradation of KCC2
- downregulation of KCC2 expression (KCC2; P7, 3 h post-ischemia): 15-20%
- KCC2 degradation compared to the contralateral hemisphere (KCC2; P7, 24 h post-ischemia): 15-18%
- effect on post-ischemic degradation of KCC2 expression (KCC2; P7 and P10, 24 h post-ischemia): failed to prevent the post-ischemic KCC2 degradation
- KCC2 degradation compared to the contralateral hemisphere (KCC2; P10, 24 h post-ischemia): ~12%
